Reference: patent publication US20230089506A1, “Herbicide Combinations Comprising Glufosinate and Fluthiacet-Methyl” (BASF SE, priority 2020, published 2023)

Columns and labels:
[1] = test system: Echinochloa crus-galli (ECHCG); assay: Greenhouse post-emergence weed control, percent injury vs untreated control; type: in vivo; details: 504 h
Procedure: (§1) Glufosinate was used as a commercial SL formulation containing 280 g ai/l of glufosinate (Liberty 280 SL, BASF). While the PPO herbicide Cadet containing 109 g ai/l fluthiacet-methyl was used (Cadet, FMC) formulation. • The evaluation for plant injury or damage caused by the chemical compositions was carried out using a scale from 0-100% when compared with the untreated control plants. Here, 0 means no damage and 100 means complete destruction of the plants.
(§2) 22., E=X+Y−(X*Y/100), where • X=effect in percent using herbicide A at an application rate of a; • Y=effect in percent using herbicide B at an application rate of b; • E=expected effect (in %) of A+B at application rates a+b.
(§3) The value E corresponds to the effect (plant damage or injury) which is to be expected if the activity of the individual compounds is just additive. If the observed effect is higher than the value E calculated according to Colby, a synergistic effect is present.
(§4) Seedlings of marestail (Conyza canadiensis; ERICA) and barnyardgrass (Echinochloa crusgalli; ECHCG) were treated with postemergence applications of either glufosinate at 246 g ai/ha, fluthiacet-methyl at 0.72 g ai/ha, or the combination of glufosinate (246 g ai/ha) and fluthiacet-methyl (0.72 g ai/ha), respectively, when they were 5-10 cm in height. All glufosinate treatments contained 1% (w/v) ammonium sulfate and solo fluthiacet-methyl treatments contained 1% (w/v) ammonium sulfate plus 1% (v/v) MSO surfactant. Plants were placed in a completely randomized design with four replications per treatment. Percent injury data was collected 21 days after treatment (DAT).

[2] = test system: Conyza canadiensis (ERICA); assay: as above; type: in vivo; details: 504 h
Procedure: as §1, §2, §3, §4

[3] = read-out: % activity, Solo Glufosinate (246 g ai/ha)

SMILES | inhibition at 246 g/ha [1, 3] | inhibition at 246 g/ha [2, 3] | inhibition at 0.72 g/ha ([1]; ECHCG seedlings 5-10 cm, postemergence, 0.72 g ai/ha, 21 DAT, 1% ammonium sulfate plus 1% MSO, scale 0-100%, read-out: % activity, Solo Fluthiacet-methyl (0.72 g ai/ha)) | inhibition at 0.72 g/ha ([2]; ERICA seedlings 5-10 cm, postemergence, 0.72 g ai/ha, 21 DAT, 1% ammonium sulfate plus 1% MSO, scale 0-100%, read-out: % activity, Solo Fluthiacet-methyl (0.72 g ai/ha))
CP(=O)(O)CCC(N)C(=O)O (racemic) [Glufosinate, (2RS)-2-amino-4-[hydroxy(methyl)phosphinoyl]butyric acid] | 53% | 58% | – | –
COC(=O)CSc1cc(/N=c2\sc(=O)n3n2CCCC3)c(F)cc1Cl [Fluthiacet-methyl, fluthiacet-methyl] | – | – | 20% | 23%
